Key:
[1] = Alcohol concentration of cultures after 24 hours by HPLC; assay type: physicochemical; conditions: Example 2 cultures, 30° C.
Experimental: Saccharomyces cerevisiae BY4743 (ATCC 201390) was plated from a freezer vial onto YPD agar (Teknova, Hollister, Calif.; Cat. #Y1000) and incubated overnight at 30° C. Cells from the YPD plate were inoculated into a 25 ml pre-culture of YPD broth (Teknova; Cat. #Y5000) with an initial OD600 of 0.06 to 0.08. The pre-culture was grown for 7 hours in an aerobic shaker at 30° C. An aliquot of the pre-culture was inoculated into 200 ml of YPD broth, with an initial OD600 of 0.06 to 0.08, and this culture was incubated with aeration at 30° C. for approximately 17 hours. The optical density of the culture was measured, the culture was centrifuged and the cells were resuspended to yield an OD600 of 5 in fresh YPD broth. This is referred to as a high cell density (HCD) culture. […] This is referred to as a low the cell density (LCD) culture. These cultures were incubated at 30° C. with shaking for 30 minutes for an acclimation period. At the end of the 30 minute acclimation period, the OD600 was measured. 5 ml of low or high cell density culture was dispensed to 15 ml conical tubes which contained different concentrations of the alcohol to be tested. […] All samples were filtered with Acrodisc CR PTFE 0.2 μm filters (Pall Life Sciences, Port Washington, N.Y.) and analyzed using a Shodex SH1011 column (8 mm ID×300 mm length; Showa Denko America, Inc., New York, N.Y.) and a Shodex SH-G as a guard column. […]

[2] = test system: Saccharomyces cerevisiae BY4743; test: 24 hour survival (CFU) at low and high cell density; assay type: cell-based
Experimental: Saccharomyces cerevisiae BY4743 (ATCC 201390) was plated from a freezer vial onto YPD agar (Teknova, Hollister, Calif.; Cat. #Y1000) and incubated overnight at 30° C. Cells from the YPD plate were inoculated into a 25 ml pre-culture of YPD broth (Teknova; Cat. #Y5000) with an initial OD600 of 0.06 to 0.08. The pre-culture was grown for 7 hours in an aerobic shaker at 30° C. An aliquot of the pre-culture was inoculated into 200 ml of YPD broth, with an initial OD600 of 0.06 to 0.08, and this culture was incubated with aeration at 30° C. for approximately 17 hours. The optical density of the culture was measured, the culture was centrifuged and the cells were resuspended to yield an OD600 of 5 in fresh YPD broth. This is referred to as a high cell density (HCD) culture. […] This is referred to as a low the cell density (LCD) culture. These cultures were incubated at 30° C. with shaking for 30 minutes for an acclimation period. At the end of the 30 minute acclimation period, the OD600 was measured. 5 ml of low or high cell density culture was dispensed to 15 ml conical tubes which contained different concentrations of the alcohol to be tested. A control tube included no alcohol. The tubes were placed in a rotary drum at 30° C. and incubated for 24 hours. The time of addition of cells was referred to as “time 0”. […] Colony forming units (CFUs) were determined on YPD plates at time 0 for the control and at 24 hours for each of the cultures, including the control culture, using standard microbiological methods. […] Colonies were counted after 48 hours, and CFUs/ml were calculated. At time 0, the low cell density cultures had about 4.8×10^5 CFUs/ml, and the high cell density cultures had about 5.4×10^7 CFUs/ml.

[3] = test system: Saccharomyces cerevisiae BY4743; test: Growth (OD600) of yeast in varying isobutanol concentrations; assay type: cell-based
Experimental: Saccharomyces cerevisiae BY4743 was plated from a freezer vial onto YPD agar (Teknova, Hollister, Calif.; Cat. #Y1000) and incubated overnight at 30° C. Cells from the YPD plate were inoculated into a 25 ml pre-culture of YPD broth (Teknova, Hollister, Calif.; Cat. #Y5000) with an initial OD600 of 0.06 to 0.08. The pre-culture was grown for 7 hours in an aerobic shaker at 30° C. An aliquot of the pre-culture was inoculated into 125 ml of YPD broth, with an initial OD600 of 0.06 to 0.08, and this culture was incubated with aeration at 30° C. for approximately 17 hours.
A starter culture of 150 ml of YPD was inoculated with 5 ml of the overnight culture with an initial OD600 of 0.15. This culture was incubated at 30° C. with aeration for two hours, reaching OD600 of 0.38. At this time (time=0) the cultures were challenged with varying concentrations of isobutanol as given in Table 4 and the OD600 was assayed every hour for 5 h and at 24 h.

SMILES: CC(C)CO [Isobutanol, isobutanol]
- alcohol lost during the incubation period [1]: < 0.01%
- Percent Survival HCD (%) ([2]; 1.0% (w/v) alcohol, high cell density OD600 5): 77.8%
- Percent Survival LCD (%) ([2]; 1.0% (w/v) alcohol, low cell density OD600 0.05): 0.6%
- Percent Survival HCD (%) ([2]; 1.5% (w/v) alcohol, high cell density): 45.1%
- Percent Survival LCD (%) ([2]; 1.5% (w/v) alcohol, low cell density): 0.1%
- Percent Survival HCD (%) ([2]; 2.5% (w/v) alcohol, high cell density): <0.001%
- Percent Survival LCD (%) ([2]; 2.5% (w/v) alcohol, low cell density): <0.001%
- Growth (OD 600) ([3]; 0.5% isobutanol, 1 hour): 0.55 OD 600
- Growth (OD 600) ([3]; 0.5% isobutanol, 2 hours): 0.74 OD 600
- Growth (OD 600) ([3]; 0.5% isobutanol, 3 hours): 1.12 OD 600
- Growth (OD 600) ([3]; 0.5% isobutanol, 4 hours): 1.69 OD 600
- Growth (OD 600) ([3]; 0.5% isobutanol, 5 hours): 2.22 OD 600
- Growth (OD 600) ([3]; 0.5% isobutanol, 24 hours): 5.19 OD 600
- Growth (OD 600) ([3]; 0.5% isobutanol, time 0 hours): 0.38 OD 600
- Growth (OD 600) ([3]; 0.75% isobutanol, 1 hour): 0.54 OD 600
- Growth (OD 600) ([3]; 0.75% isobutanol, 2 hours): 0.68 OD 600
- Growth (OD 600) ([3]; 0.75% isobutanol, 3 hours): 1.00 OD 600
- Growth (OD 600) ([3]; 0.75% isobutanol, 4 hours): 1.36 OD 600
- Growth (OD 600) ([3]; 0.75% isobutanol, 5 hours): 1.80 OD 600
- Growth (OD 600) ([3]; 0.75% isobutanol, 24 hours): 4.97 OD 600
- Growth (OD 600) ([3]; 0.75% isobutanol, time 0 hours): 0.38 OD 600
- Growth (OD 600) ([3]; 1% isobutanol, 1 hour): 0.51 OD 600
- Growth (OD 600) ([3]; 1% isobutanol, 2 hours): 0.62 OD 600
- Growth (OD 600) ([3]; 1% isobutanol, 3 hours): 0.82 OD 600
- Growth (OD 600) ([3]; 1% isobutanol, 4 hours): 0.96 OD 600
- Growth (OD 600) ([3]; 1% isobutanol, 5 hours): 1.16 OD 600
- Growth (OD 600) ([3]; 1% isobutanol, 24 hours): 4.41 OD 600
- cell concentration reached ([3]; 1% isobutanol, after overnight growth, one OD600 = 10^7 cells/ml): about 4×10^7 cells/ml
- Growth (OD 600) ([3]; 1% isobutanol, time 0 hours): 0.38 OD 600
- Growth (OD 600) ([3]; 1.5% isobutanol, 1 hour): 0.46 OD 600
- Growth (OD 600) ([3]; 1.5% isobutanol, 2 hours): 0.50 OD 600
- Growth (OD 600) ([3]; 1.5% isobutanol, 3 hours): 0.53 OD 600
- Growth (OD 600) ([3]; 1.5% isobutanol, 4 hours): 0.61 OD 600
- Growth (OD 600) ([3]; 1.5% isobutanol, 5 hours): 0.65 OD 600
- Growth (OD 600) ([3]; 1.5% isobutanol, 24 hours): 1.41 OD 600
- Growth (OD 600) ([3]; 1.5% isobutanol, time 0 hours): 0.38 OD 600
- Growth (OD 600) ([3]; 2% isobutanol, 1 hour): 0.43 OD 600
- Growth (OD 600) ([3]; 2% isobutanol, 2 hours): 0.46 OD 600
- Growth (OD 600) ([3]; 2% isobutanol, 3 hours): 0.47 OD 600
- Growth (OD 600) ([3]; 2% isobutanol, 4 hours): 0.49 OD 600
- Growth (OD 600) ([3]; 2% isobutanol, 5 hours): 0.50 OD 600
- Growth (OD 600) ([3]; 2% isobutanol, 24 hours): 0.90 OD 600
- Growth (OD 600) ([3]; 2% isobutanol, time 0 hours): 0.38 OD 600
- Growth (OD 600) ([3]; 2.5% isobutanol, 1 hour): 0.42 OD 600
- Growth (OD 600) ([3]; 2.5% isobutanol, 2 hours): 0.42 OD 600
- Growth (OD 600) ([3]; 2.5% isobutanol, 3 hours): 0.42 OD 600
- Growth (OD 600) ([3]; 2.5% isobutanol, 4 hours): 0.45 OD 600
- Growth (OD 600) ([3]; 2.5% isobutanol, 5 hours): 0.45 OD 600
- Growth (OD 600) ([3]; 2.5% isobutanol, 24 hours): 0.52 OD 600
- Growth (OD 600) ([3]; 2.5% isobutanol, time 0 hours): 0.38 OD 600

Reference: patent publication US20120149080A1, “YEAST PRODUCTION CULTURE FOR THE PRODUCTION OF BUTANOL” (Butamax(TM) Advanced Biofuels LLC, priority 2010, published 2012)
